The source of these data is patent publication US7323319B2, “RNA containing coenzymes, biotin, or fluorophores, and methods for their preparation and use” (The University of Southern Mississippi, priority 2003, dated 2008).

Read-outs that look alike come from different tables or passages of the source.

Data set [1] concerns the target T1, T7 RNA polymerase (Escherichia phage T7, UniProt P00573). As to the kind of experiment: Coenzyme-initiated in vitro transcription of CoES7 RNA under T7 class II promoter, PAGE and phosphorimaging. The following applies: for relative intensity of N band RNA / relative intensity of N+1 band RNA / relative intensity of N+2 band RNA: 4 mM coenzyme, 1 mM each NTP, CoES7 RNA, 2 hours 37° C.; for total RNA yields versus standard transcription conditions: higher than 8 mM coenzyme. The data set is classed as biochemical. The method, then:
Transcription promoter sequence was derived from the T7 class II promoter (φ2.5) (FIG. 1) (Dunn, J. J., and Studier, F. W., J. Mol. Biol. 166: 477-535 (1983)). The RNA sequence was from a previously isolated coenzyme-synthesizing ribozyme (Huang, F., et al., Biochemistry 39: 15548-15555 (2000)), CoES7, with the sequence of 5′-[…]-3′ (SEQ ID NO:1). Transcription was carried out under the following standard conditions: 1 mM each of ATP, UTP, GTP, and CTP, 40 mM Tris (pH 8.0), 6 mM MgCl2, 2 mM spermidine, 0.01% Triton X-100, 5 mM DTT, 0.2 unit/mL RNase inhibitor, […] DNA templates, and 5 unit/mL T7 RNA polymerase. In addition, different concentrations of coenzymes, De-P-CoA, NAD, and FAD were included to initiate transcription. For quantitation purposes, [α-^32P]ATP (NEN Life Science, Boston, Mass.) was also added to transcription solutions to internally label RNA transcripts. All transcription reactions were allowed to proceed for 2 hours at 37° C. before product analysis by 8% denaturing PAGE.
Transcription of CoES7 RNA was carried out under the standard conditions, with the addition of various concentrations of coenzymes. After fractionation by PAGE, different RNA bands became clearly visible. In the absence of any coenzymes (lane 1), transcription produced three pppRNA bands in decreasing order: the full-length RNA transcripts (N band), N+1, and N+2 bands (with one and two extra nucleotides added at the 3′ end of full-length RNA). Their relative yields were 59%, 35%, and 6% (from N to N+2), respectively. When one of the three coenzymes, De-P-CoA, NAD, and FAD, was added to the transcription solution (lanes 2-4), no additional RNA bands were generated. However, the relative intensity of the three RNA bands in each lane changed considerably when compared with that of lane 1. […] In the presence of 4 mM De-P-CoA (lane 2), the relative intensity of the three bands changed to 40%, 45%, and 15% (from N to N+2). The relative RNA band intensity were 30%, 49%, and 21% for both NAD- and FAD-initiated transcription (lanes 3 and 4). These changes in RNA band relative intensity resulted from the incorporation of coenzymes (De-P-CoA, NAD, and FAD) into RNA. When one of these coenzymes is incorporated to the 5′ end of RNA, the coenzyme-linked RNA (CoE-RNA) behaves as if an extra normal nucleotide is added to the pppRNA. Therefore, the N band CoE-RNA co-migrates with the N+1 band pppRNA, while the N+1 band CoE-RNA and the N+2 band pppRNA run together in the gel. The N+2 band CoE-RNA was barely visible because of its low intensity. To confirm the incorporation of coenzymes into RNA under the class II promoter, three independent experiments were performed: resolution of CoA-RNA from pppRNA by gel after DNazyme cleavage, measurement of free sulfhydryl group of CoA-RNA, and fluorescence emission spectrum of FAD-RNA.

Data set [2] in a line: Fluorescence emission spectra of FAD-RNA and free FAD. The data set is classed as physicochemical. The following applies: 0.5 M sodium acetate, pH 5.2.
The target in data set [3] is T1, T7 RNA polymerase. The data set is classed as biochemical. The following applies: for effect of 3′ blocked adenosine derivatives on normal RNA transcription and on CoA-RNA transcription: 4 mM, without coenzymes or in the presence of 4 mM De-P-CoA; for relative CoA-RNA yield / total RNA yield relative to RNA obtained at 1 mM ATP and 0 mM De-P-CoA: 4 mM De-P-CoA. From the text: To physically separate CoA-RNA from pppRNA by PAGE, a different RNA sequence of 35 nucleotides was designed to allow a specific DNazyme (Santoro, S. W. and Joyce, G. F., Proc. Natl. Acad. Sci. USA 94: 4262-4266 (1997)) cleavage after transcription. Two DNA oligonucleotides with the sequence of 5′-[…]-3′ (SEQ ID NO:2) and 5′-[…]-3′ (SEQ ID NO:3) were used to construct (by PCR) a DNA duplex template, from which a 35 nt RNA sequence of 5′-[…]-3′ (SEQ ID NO:4) was transcribed. A DNazyme (with the sequence of 5′-[…]-3′; SEQ ID NO:5) was then used to specifically cleave off a portion of the 3′ heterogeneous ends of both CoA-RNA and pppRNA, yielding a homogeneous length of 25 nt CoA-RNA and pppRNA. Similar transcription conditions were used with the exception of different concentrations of ATP. Transcribed RNA (about […]) was incubated with […] DNazyme for 60 minutes at 37° C. in 50 mM MgCl2 and 50 mM Tris, pH 8.0. RNA was then analyzed by 12% denaturing PAGE.
(§1) After polyacrylamide gel electrophoresis, individual RNA bands were visualized through phosphorimaging (Molecular Imager, Bio-Rad Laboratories, Hercules, Calif.). Quantitation of different RNA bands was achieved through profile integration after horizontal background subtraction. Coenzyme-RNA (CoE-RNA) yields were calculated based on relative intensity of pppRNA bands (N, N+1, and N+2 bands) in the absence of coenzymes. To confirm the validity of the calculation, DNazyme-cleaved pppRNA and CoA-RNA were quantitated directly after gel resolution of CoA-RNA from pppRNA. In addition, CoA-RNA yield was determined independently by thiopropyl Sepharose 6B affinity chromatography based on its free sulfhydryl group.
To physically resolve coenzyme-RNA from pppRNA by gel, a DNazyme (Santoro, S. W., and Joyce, G. F., Proc. Natl. Acad. Sci. USA, 94: 4262-4266 (1997)) was designed to trim off the 3′ heterogeneous ends of RNA.

For data set [4], the target named is T1, T7 RNA polymerase. The following applies: CoES7 RNA prepared under 1 mM ATP and 4 mM De-P-CoA. The method, then: as §1
Where [5] appears, read: different coenzyme concentrations (De-P-CoA: low concentrations; FAD: especially >4 mM), FIGS. 4A-4C.
[6] abbreviates: 0.2-0.5 mM ATP and 4 mM De-P-CoA.

T1 sequence (P00573 whole entry): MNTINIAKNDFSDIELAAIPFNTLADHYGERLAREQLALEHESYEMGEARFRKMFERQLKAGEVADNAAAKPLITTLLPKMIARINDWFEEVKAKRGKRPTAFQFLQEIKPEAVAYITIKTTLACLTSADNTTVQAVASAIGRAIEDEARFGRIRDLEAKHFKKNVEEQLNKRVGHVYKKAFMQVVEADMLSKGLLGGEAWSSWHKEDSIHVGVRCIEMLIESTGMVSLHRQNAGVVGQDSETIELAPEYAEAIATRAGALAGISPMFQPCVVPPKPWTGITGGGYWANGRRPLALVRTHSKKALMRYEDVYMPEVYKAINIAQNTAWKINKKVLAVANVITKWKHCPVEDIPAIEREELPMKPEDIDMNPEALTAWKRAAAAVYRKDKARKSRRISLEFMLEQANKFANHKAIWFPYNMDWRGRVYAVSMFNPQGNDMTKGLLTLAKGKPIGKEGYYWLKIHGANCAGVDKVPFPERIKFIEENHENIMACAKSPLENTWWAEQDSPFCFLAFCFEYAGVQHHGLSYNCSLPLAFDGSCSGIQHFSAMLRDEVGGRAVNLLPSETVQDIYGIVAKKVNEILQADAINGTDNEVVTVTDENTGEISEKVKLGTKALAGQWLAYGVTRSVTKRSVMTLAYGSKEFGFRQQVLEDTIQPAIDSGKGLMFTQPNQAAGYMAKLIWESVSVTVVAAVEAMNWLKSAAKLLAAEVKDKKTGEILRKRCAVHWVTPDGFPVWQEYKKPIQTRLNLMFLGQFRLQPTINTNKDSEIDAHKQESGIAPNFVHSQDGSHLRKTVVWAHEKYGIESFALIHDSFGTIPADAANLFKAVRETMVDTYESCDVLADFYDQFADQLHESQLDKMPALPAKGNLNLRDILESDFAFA

For the compound `Cc1cc2nc3c(=O)[nH]c(=O)nc-3n(C[C@H](O)[C@H](O)[C@H](O)COP(=O)(O)OP(=O)(O)OC[C@H]3O[C@@H](n4cnc5c(N)ncnc54)[C@H](O)[C@@H]3O)c2cc1C` [FAD, flavin adenine dinucleotide], in data set [1], the “relative intensity of N band RNA” value is 30%, the “relative intensity of N+1 band RNA” value turned out to be 49%, the “relative intensity of N+2 band RNA” value is 21% and the “total RNA yields versus standard transcription conditions” value is reported as “significantly lower”. Also, the “effect on total RNA yield (transcription)” value (shortened to “effect on total RNA yield”) in data set [1] (setting [5]) was “somewhat inhibitory effect”. The “enhancement of fluorescence intensity by urea” value in data set [2] (4 M urea) is 1.7 fold. The “enhancement of fluorescence intensity by urea” value in data set [2] (7 M urea) is 2.7 fold.

With `CC(C)(COP(=O)(O)OP(=O)(O)OC[C@H]1O[C@@H](n2cnc3c(N)ncnc32)[C@H](O)[C@@H]1OP(=O)(O)O)[C@@H](O)C(=O)NCCC(=O)NCCS` [CoA, coenzyme A], the “effect of 3′ blocked adenosine derivatives on normal RNA transcription and on CoA-RNA transcription” value in data set [3] is “neither CoA nor 3′ AMP has detectable effect”.

On to `Nc1ncnc2c1ncn2[C@@H]1O[C@H](CO)[C@@H](OP(=O)(O)O)[C@H]1O` [3′ AMP], for which the “effect of 3′ blocked adenosine derivatives on normal RNA transcription and on CoA-RNA transcription” value in data set [3] is given as “neither CoA nor 3′ AMP has detectable effect”.

With `CC(C)(COP(=O)(O)OP(=O)(O)OC[C@H]1O[C@@H](n2cnc3c(N)ncnc32)[C@H](O)[C@@H]1O)[C@@H](O)C(=O)NCCC(=O)NCCS` [De-P-CoA, 3′-Dephospho coenzyme A], in data set [1], the “relative intensity of N band RNA” value is 40%, the “relative intensity of N+1 band RNA” value is 45%, the “relative intensity of N+2 band RNA” value came out at 15% and the “total RNA yields versus standard transcription conditions” value is listed as “significantly lower”. Besides, the “coenzyme-RNA (CoE-RNA) yield over total RNA synthesized” value in data set [1] (4-8 mM coenzyme, standard transcription conditions) is listed as 30-35%. Besides, the “effect on total RNA yield” value in data set [1] (setting [5]) is “stimulates transcription to some extent”. The “effect on total RNA yield” value in data set [1] (higher concentrations of De-P-CoA) was “eventually becomes inhibitory”. Also, in data set [3] (0.1 mM ATP), the “relative CoA-RNA yield” value is 56%; the “total RNA yield relative to RNA obtained at 1 mM ATP and 0 mM De-P-CoA” value amounted to 12%. In addition, in data set [3] (0.2 mM ATP), the “relative CoA-RNA yield” value is on record as 52%; the “total RNA yield relative to RNA obtained at 1 mM ATP and 0 mM De-P-CoA” value turned out to be 44%. Moreover, in data set [3] (0.5 mM ATP), the “relative CoA-RNA yield” value was found to be 46%; the “total RNA yield relative to RNA obtained at 1 mM ATP and 0 mM De-P-CoA” value is recorded as 85%. Besides, the “total RNA yield relative to RNA obtained at 1 mM ATP and 0 mM De-P-CoA” value in data set [3] (1 mM ATP) is listed as 110%. The “relative CoA-RNA yield” value in data set [3] (1 mM ATP, 1 mM GTP, CTP, UTP) was determined as 33%. For the same compound, in data set [3] (setting [6]), the “CoA-RNA produced by transcription” value is given as “over 50%” and the “reduction in total RNA yields” value was 20-50%. In data set [4], the “loaded RNA retained on thiopropyl Sepharose 6B column (CoA-RNA yield)” value is 30-35%.
